Earlier results in the CATMoS acute toxicity set (Mansouri et al. 2021).
Several values for one entry are separate records, joined by “and”; a condition that tells them apart may be missing. Equal values may be shown once.

Experiment: rat acute oral toxicity
Settings: in vivo
Description: […]The data set underlying the modeling effort for this project was initially compiled by NICEATM and U.S. EPA’s CCTE. Briefly, LD50 data were collected from rat acute oral systemic toxicity tests, including limit tests, ranges/confidence intervals, and discrete LD50 values. The full data set included 21,200 LD50 entries for 15,688 substances. […] Data were reviewed to ensure that LD50 values with obvious errors in the extracted data such as unit conversion errors (e.g., comma and decimal separator misplacements) were either fixed or removed. After this review, 16,209 LD50 values remained. Many of the chemicals represented had multiple LD50 entries, requiring that a single representative value per Chemical Abstracts Service Registry Number (CASRN) identifier be defined to facilitate modeling efforts. Based on ATWG feedback and to define the representative LD50 as a protective value while accounting for the distribution across multiple LD50s, the median of the lowest quartile was computed using only discrete LD50 values (omitting limit test data and range and confidence interval data). A detailed summary of the data compilation is available online on the NICEATM webpage dedicated to the collaborative modeling project (NTP 2020).
[…][…] For categorical designations, limit test and range/confidence interval LD50 data were integrated wherever possible. As such, the number of chemicals with end point values/calls varies across the modeling end points (Table 3) based on whether chemicals had representative LD50 values and/or other data. If a chemical had both, the representative value was used to determine categorical calls rather than limit test data. Some data were useable only for certain end points and categories depending on the thresholds. For example, ranges that spanned multiple hazard categories were considered only for the binary (very toxic/nontoxic) end points and omitted from rendering a determination for hazard category assignment.
[…]The final data set comprising 11,992 chemicals was split into training and evaluation sets […], respectively. This process was performed semirandomly by ordering chemicals based on the five end points (categorical and continuous LD50 values) and partitioning every fourth record into the evaluation set accordingly. This approach was taken to ensure an equivalent distribution of the LD50 values and the different hazard categories between the training and the evaluation sets without supervised sampling of the chemicals based on structures (Figure 1A). The sources of the chemical structures were also kept equivalent between the two sets, with chemical structures obtained from DSSTox, being the highest quality, representing over 75% of each set (Figure 1B).

| SMILES | LD50 |
| --- | --- |
| N#C[C@H]1O[C@@H]1C#N | 250 mg/kg |
| CCCC(=O)O[C@]1(C(=O)COC(=O)CC)CC[C@H]2[C@@H]3CCC4=CC(=O)CC[C@]4(C)[C@H]3[C@@H](O)C[C@@]21C | 5120 mg/kg |
| CCC1CC2CC3c4[nH]c5ccc(OC)cc5c4CCN(C2)C13 (stereo not given) | 482 mg/kg |
| CN(CCCO)CCC(c1ccccc1)c1ccccc1 | 1400 mg/kg |
| CCCCOCCCOC(=O)CCOc1cc(Cl)c(Cl)cc1Cl | 500 mg/kg |
| CC[C@H]1[C@@H]2C[C@H]3[C@@H]4N(C)c5ccccc5[C@]45C[C@@H](C2[C@H]5O)N3[C@@H]1O (stereo not given in full) | 360 mg/kg |
| CNC(=O)Nc1c(OCCN2CCCC2)c(OC)c2occc2c1OC | 1050 mg/kg |
| COc1cc(-n2ccnc2)ncn1 | 400 mg/kg |
| CC(C)(C)C(=O)CCl | 550 mg/kg |
| FC(F)(F)c1cccc(-n2nc(OCCCN3CCCCCC3)c3cccnc32)c1 | 780 mg/kg |
| CSCc1cnccn1 | 2150 mg/kg |
| Nc1cc(Cl)c(NC2=NCCN2)c(Cl)c1 | 38 mg/kg |
| O=C1CSC2(CCN(CCCN3c4ccccc4Sc4ccc(Cl)cc43)CC2)N1 | 3800 mg/kg |
| CC1CNCCN1 (stereo not given) | 2030 mg/kg |
| CCN1CCc2c3n(c4ccccc24)C(C(=O)OC)=CCC31 (stereo not given) | 2350 mg/kg |
| CN=C(O)O/N=C1\COCCS1 | 37 mg/kg |
| CSN(C)C(=O)Oc1cccc2c1OC(C)(C)C2 | 5 mg/kg |
| CCCCCCC[N+](CC)(CC)CCCCc1ccc(Cl)cc1 | 456 mg/kg |
| OCCOCCN1CCN(C(c2ccccc2)c2ccccc2)CC1 | 840 mg/kg |
| COc1cc([C@@H]2c3cc4c(cc3[C@H](O[C@@H]3O[C@@H]5COC(c6ccccc6)O[C@H]5[C@H](O)[C@H]3O)[C@H]3COC(=O)[C@H]23)OCO4)cc(OC)c1OC (stereo not given in full) | 823 mg/kg |
| COC(=O)C(C)c1ccc(-c2ccsc2)cc1 (stereo not given) | 2330 mg/kg |
| CCOC(=O)C(C(C)=O)C(=O)Cc1c(C)n(C(=O)c2ccc(Cl)cc2)c2ccc(OC)cc12 (stereo not given) | 175 mg/kg |
| CC(=O)OC(C)OC(=O)C(C)c1ccc(-c2ccccc2)c(F)c1 (stereo not given) | 66 mg/kg |
| CC(C)Cc1ccc(C(C)C(=O)OCCN2CCN(c3cccc(Cl)c3)CC2)cc1 (stereo not given) | 3350 mg/kg |

| SMILES | LD50 |
| --- | --- |
| O=C(NCCc1ccc(O)cc1)c1cccnc1 | 8500 mg/kg |
| Nc1ccc([N+](=O)[O-])cc1[N+](=O)[O-] | 285 mg/kg |
| Cc1cccc(OCC(O)CNC(C)(C)C)c1C (stereo not given) | 575 mg/kg |
| COP(=S)(OC)SC1CCC2C=CCC1S2 (stereo not given) | 1000 mg/kg |
| CCSc1nc(NC(C)C)nc(NC(C)C)n1 | 3900 mg/kg |
| COP(=O)(OC)Oc1cc(C)n(C)c(=O)c1 | 2.91 mg/kg |
| O=C(c1ccccc1)c1ccc(O)cc1 | 12100 mg/kg |
| CC(C)=CC1C(C(=O)OCc2cc3c(cc2Cl)OCO3)C1(C)C (stereo not given) | 15000 mg/kg |
| CC(C)OC(=O)C=CC(=O)OC(C)C | 2140 mg/kg and 3250 mg/kg |
| Cn1cc(C(=O)[C@@H]2CCc3[nH]cnc3C2)c2ccccc21 | 1260 mg/kg |
| COc1ccc(C(O)(c2cncnc2)C2CC2)cc1 (stereo not given) | 4500 mg/kg |
| O=C1C=CCCC1 | 220 mg/kg |
| O=C(NCNC(=O)NC1C(=O)NC(=O)N1CO)NC1C(=O)NC(=O)N1CO (stereo not given) | 11300 mg/kg |
| CCCCOCCOCCOCOCCOCCOCCCC | 1750 mg/kg |
| COP(=O)(OC)OC(C)=CC(=O)OCc1ccccc1 | 56 mg/kg |
| COc1cc(OC)n2nc(N)nc2n1 | 1030 mg/kg |
| COC(=O)C1C2CC3c4[nH]c5cc(OC)ccc5c4CCN3CC2CC(OC2CCCCO2)C1OC (stereo not given) | 173 mg/kg |
| Fc1cc(F)c2nc(C(F)(F)F)[nH]c2c1F | 2.29 mg/kg |
| C=CC(=O)OCCSCC | 2500 mg/kg |
| CCCCC(C)(C)[C@H](O)C=C[C@H]1[C@H](C)CC(=O)[C@@H]1CC=CCCCC(=O)O | 22 mg/kg |
| CSCCC(O)C(=O)O (stereo not given) | 3480 mg/kg |
| COC(=O)C1CCC(C(=O)OC)CC1 (stereo not given) | 2810 mg/kg |
| Cc1c(F)c(N2CCNC(C)C2)cc2c1c(=O)c(C(=O)O)cn2C1CC1 (stereo not given) | 3030 mg/kg |
| FC(F)(F)c1cccc(CNC2=NCCS2)c1 | 50 mg/kg |

| SMILES | LD50 |
| --- | --- |
| CCCc1ccc(OC)cc1 | 4400 mg/kg |
| CCNc1nc(NCC)nc(OC)n1 | 535 mg/kg |
| O=C=Nc1ccc(Cc2ccc(N=C=O)cc2N=C=O)cc1 | 20000 mg/kg |
| COC(=O)c1c(C(F)F)nc(C(F)(F)F)c(C(=O)OC)c1CC(C)C | 1420 mg/kg |
| OCCN1CCCCC1 | 1500 mg/kg |
| CN(C)[C@@H]1C(O)=C(C(N)=O)C(=O)[C@@]2(O)C(O)=C3C(=O)c4c(O)ccc(Cl)c4[C@@H](O)[C@H]3C[C@@H]12 | 2370 mg/kg |
| CC(CCl)N(C)C (stereo not given) | 166 mg/kg |
| NCCNCCNCCN | 2500 mg/kg and 2280 mg/kg |
| O=C(OCCCOC(=O)c1ccccc1)c1ccccc1 | 24000 mg/kg |
| CN(C(=O)c1ccc(N)cc1)C1CCN(C2CCCCC2)C1 (stereo not given) | 422 mg/kg |
| O=C(O)C(c1ccccc1)c1ccccc1 | 5540 mg/kg |
| CCOC(=O)CSP(=S)(OCC)OCC | 1100 mg/kg |
| CC(C)NNC(=O)c1ccncc1 | 365 mg/kg |
| Cc1cccc2sc(N)nc12 | 500 mg/kg |
| CCCCC(CC)C(=O)OCCOCCOCCOCCOC(=O)C(CC)CCCC (stereo not given) | 18000 mg/kg |
| Oc1c(Cl)cc(Cl)c(Cl)c1Cc1c(O)c(Cl)cc(Cl)c1Cl | 59.2 mg/kg |
| C[C@]12CC[C@@H]3c4ccc(OC(=O)N(CCCl)CCCl)cc4CC[C@H]3[C@@H]1CC[C@@H]2OP(=O)(O)O | 5400 mg/kg |
| CCCCCCOC(=O)c1ccccc1C(=O)OCCCCCC | 29600 mg/kg |
| c1ccc2cnccc2c1 | 360 mg/kg |
| CC(C)(c1ccc(O)cc1)c1ccc(O)cc1 | 1000 mg/kg |
| O=C1CCc2ccccc2O1 | 1460 mg/kg |
| CCCCCCCCCCCC[N+](C)(C)Cc1ccccc1 | 400 mg/kg and 230 mg/kg |
| SCc1cnccn1 | 1700 mg/kg |
| COP(=S)(OC)Oc1cnc2ccccc2n1 | 900 mg/kg |

| SMILES | LD50 |
| --- | --- |
| CN1CCN(c2cc3c(nn2)Oc2ccccc2N3C)CC1 | 1000 mg/kg |
| N#CCCCCC#N | 155 mg/kg |
| NS(=O)(=O)c1cc(-c2nnn[nH]2)c(NCc2cccs2)cc1Cl | 2540 mg/kg |
| Cc1cccc(/N=N\N(C)C)c1 | 300 mg/kg |
| CO[C@@H]1[C@@H](OC(N)=O)[C@@H](O)[C@H](Oc2ccc3c(O)c(NC(=O)c4ccc(O)c(CC=C(C)C)c4)c(=O)oc3c2C)OC1(C)C | 3500 mg/kg |
| CC(C)(c1ccccc1)c1cc(CN2CCCCC2)c(O)c(CN2CCCCC2)c1 | 600 mg/kg |
| COc1ccc(N)cc1N | 460 mg/kg |
| CCS(=O)CC(C)SP(=O)(OC)OC (stereo not given) | 89 mg/kg |
| CC[N+]1(CC)CCC(OC(=O)C(O)(c2ccccc2)c2ccccc2)C1 (stereo not given) | 760 mg/kg |
| CN(C)CC/C=C1\c2ccccc2COc2ccccc21 | 147 mg/kg |
| O=c1[nH]nc(-c2ccccc2)c2conc12 | 1000 mg/kg |
| c1ccc(C(OCCN2CCOCC2)c2ccccc2)cc1 | 916 mg/kg |
| CCOC(=O)C=Cc1ccccc1 | 4000 mg/kg |
| O=C(OCCN1CCCCC1)C(O)(c1ccccc1)c1ccccc1 | 1210 mg/kg |
| CC(C)(C)N(Cl)Cl | 780 mg/kg |
| CC[C@H]1CCCC(O[C@H]2CC[C@H](N(C)C)[C@@H](C)O2)[C@@H](C)C(=O)C2=C[C@@H]3[C@@H](C=C[C@@H]4C[C@@H](O[C@@H]5O[C@@H](C)[C@H](OC)[C@@H](OC)[C@H]5OC)C[C@@H]34)[C@@H]2CC(=O)O1 (stereo not given in full) | 3740 mg/kg |
| Cc1nn(-c2ccccc2)c(=O)c2noc(C)c12 | 1000 mg/kg |
| CCOP(=S)(OCC)SCSCc1ccccc1 | 6 mg/kg |
| COC(=O)CCC(Br)C(C)=O (stereo not given) | 600 mg/kg |
| COc1ccc(CN2CCN(C(c3ccc(F)cc3)c3ccc(F)cc3)CC2)c(OC)c1OC | 307 mg/kg |
| OCCN(CCO)c1nc(-c2ccccc2)c(-c2ccccc2)o1 | 11400 mg/kg |
| COc1ccc2c3c1O[C@H]1[C@@H](O)C=C[C@H]4[C@@H](C2)N(C)CC[C@@]341 | 85 mg/kg |
| CC1=CC(=O)/C(=C(/C)O)C(=O)O1 | 500 mg/kg |
